Assay results as given in paper PMC5706701, “Development of a homogenous high-throughput assay for inositol hexakisphosphate kinase 1 activity” (PLoS ONE, 2017).
Structures can show the parent of a compound that is named as a salt. Where two headings read alike, the source gives them in different places. Blank lines part the entries; values can stand above or below the compound they belong to.

Biological target: T1, Human IP6K1 (Homo sapiens, UniProt Q92551)
T1 construct: GST (N, cleaved yes); made in house; host or cells: C43 E. coli, pGEX-6P-2
Assay: IP6K1 high-throughput screen of the Sigma LOPAC (ADP-Glo Max, single point);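 also: final compound concentration 10µM in 5% DMSO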
Format: biochemical

[1] = LOPAC single-point screen, ADP-Glo Max raw signal per well
[2] = LOPAC single-point screen, Z-score from raw signal with plate average and StDev
[3] = LOPAC single-point screen, ADP-Glo Max luminescence raw signal per well
[4] = LOPAC single-point screen, Z-score relative to plate average and StDev
[5] = Sigma LOPAC single-point screen, ADP-Glo Max raw signal per well
[6] = Sigma LOPAC single-point screen, Z-score from plate average and StDev
[7] = LOPAC single-point screen, Z-score against plate average and StDev
[8] = LOPAC single-point screen, Z-score from plate average and StDev

T1 sequence (Q92551 whole entry): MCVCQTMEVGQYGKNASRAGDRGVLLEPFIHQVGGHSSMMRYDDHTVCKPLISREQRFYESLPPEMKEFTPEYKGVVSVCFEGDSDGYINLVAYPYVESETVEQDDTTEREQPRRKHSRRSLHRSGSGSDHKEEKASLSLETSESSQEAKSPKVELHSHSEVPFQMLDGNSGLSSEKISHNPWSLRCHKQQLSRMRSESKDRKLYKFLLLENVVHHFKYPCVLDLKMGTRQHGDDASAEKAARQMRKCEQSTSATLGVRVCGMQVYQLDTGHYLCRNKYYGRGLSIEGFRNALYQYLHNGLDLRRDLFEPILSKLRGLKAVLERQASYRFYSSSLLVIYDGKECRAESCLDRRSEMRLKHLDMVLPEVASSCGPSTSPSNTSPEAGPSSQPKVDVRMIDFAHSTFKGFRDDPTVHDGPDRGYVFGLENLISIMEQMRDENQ

Raw Signal [1]: 53682
Z-score [2]: -0.455
SMILES: C[C@@H]1C(=O)NC2=Nc3cccc(Cl)c3CN21 [Quazinone]

Raw Signal [3]: 51474
Z-score [4]: -0.4906
SMILES: NC(=O)c1ncn([C@@H]2O[C@H](CO)[C@@H](O)[C@H]2O)c1O [Mizoribine]

Raw Signal [1]: 52038
Z-score [2]: -0.3958
SMILES: Cl.FC(F)(F)c1cc(CO[C@H]2CCCN[C@H]2c2ccccc2)cc(C(F)(F)F)c1 [L-733,060 hydrochloride]

Raw Signal [1]: 54052
Z-score [2]: -0.2265
SMILES: N=C(N)NC(CCC(=O)O)C(=O)O (stereo not drawn) [alpha-Guanidinoglutaric acid]

Raw Signal [5]: 58753
Z-score [6]: 0.5302
SMILES: C[C@H](O)C(=O)C1=Nc2c(nc(N)[nH]c2=O)NC1 [Sepiapterin]

Raw Signal [1]: 54303
Z-score [2]: -0.3343
SMILES: CC(C)(C)NCC(O)c1ccccc1Cl (stereo not shown) [Tulobuterol hydrochloride]

Raw Signal [5]: 61643
Z-score [6]: 1.0917
SMILES: CN[C@H](CC(C)C)C(=O)N[C@H]1C(=O)N[C@@H](CC(N)=O)C(=O)N[C@H]2C(=O)N[C@H]3C(=O)N[C@H](C(=O)N[C@H](C(=O)O)c4cc(O)cc(O)c4-c4cc3ccc4O)[C@H](O)c3ccc(c(Cl)c3)Oc3cc2cc(c3O[C@@H]2O[C@H](CO)[C@@H](O)[C@H](O)[C@H]2O[C@H]2C[C@](C)(N)[C@H](O)[C@H](C)O2)Oc2ccc(cc2Cl)[C@H]1O.Cl

Raw Signal [3]: 51155
Z-score [4]: -0.8148
SMILES: CCOC(=O)c1cnc2c(cnn2CC)c1NN=C(C)C [Etazolate hydrochloride]

Raw Signal [5]: 58817
Z-score [6]: 0.5427
SMILES: CN1CCN(CCCN2c3ccccc3Sc3ccc(Cl)cc32)CC1 [Prochlorperazine dimaleate]

Raw Signal [3]: 64012
Z-score [8]: 1.552
SMILES: CCCCCCCCCCCCC/C=C/[C@@H](O)[C@@H](N)CO [Sphingosine]

Raw Signal [1]: 54187
Z-score [7]: -0.0347
SMILES: CCCNCC(O)COc1ccccc1C(=O)CCc1ccccc1 (stereo not shown) [Propafenone hydrochloride]

Raw Signal [5]: 56472
Z-score [6]: 0.3492
SMILES: C=C1C(=O)O[C@H]2[C@H]1CC/C(C)=C/CC[C@@]1(C)O[C@@H]21 [Parthenolide]

Raw Signal [5]: 58620
Z-score [6]: 0.7102
SMILES: COc1cc2c(cc1O)CC[C@@H]1[C@@H]2CC[C@]2(C)[C@@H](O)CC[C@@H]12 [2-methoxyestradiol]

Raw Signal [5]: 61517
Z-score [6]: 0.6347
SMILES: CN(C)CC/C=C1/c2ccccc2Sc2ccc(Cl)cc21 [Chlorprothixene hydrochloride]

Raw Signal [3]: 54301
Z-score [4]: -0.6362
SMILES: CC(C)NC[C@@H](O)COc1ccc(CC(N)=O)cc1 [R(+)-Atenolol]

Raw Signal [1]: 58068
Z-score [7]: 0.02728
SMILES: CCn1nc(C(=O)O)c(=O)c2cc3c(cc21)OCO3 [Cinoxacin]

Raw Signal [3]: 48943
Z-score [4]: -0.9158
SMILES: CNc1ncnc2c1ncn2[C@@H]1O[C@H](CO)[C@@H](O)[C@H]1O [N6-Methyladenosine]

The remaining lines, values behind:

SMILES: Br.Br.NC(N)=NCCSSCCN=C(N)N [Guanidinoethyl disulfide dihydrobromide]
Raw Signal [5]: 61778
Z-score [6]: 1.343

SMILES: N=C(N)N/N=C/c1c(Cl)cccc1Cl [Guanabenz acetate]
Raw Signal [1]: 54722
Z-score [7]: -0.09038

SMILES: O=C1NCN(c2ccccc2)C12CCN(CCCC(c1ccc(F)cc1)c1ccc(F)cc1)CC2 [Fluspirilene]
Raw Signal [3]: 52037
Z-score [4]: -0.6357

SMILES: COc1ccc2c(c1OC)C(=O)OC2C1c2cc3c(cc2CCN1C)OCO3 (single isomer, unassigned; (+)) [(+)-Hydrastine]
Raw Signal [1]: 55977
Z-score [7]: 0.1645

SMILES: Cn1cnc([N+](=O)[O-])c1Sc1ncnc2nc[nH]c12 [Azathioprine]
Raw Signal [3]: 52333
Z-score [4]: -0.9828

SMILES: N[C@@H](COP(=O)(O)O)C(=O)O [O-Phospho-L-serine]
Raw Signal [5]: 59842
Z-score [6]: 0.9155

SMILES: CC(C)[C@H](CO)Nc1nc(Nc2cccc(Cl)c2)c2ncn(C(C)C)c2n1 [Purvalanol A]
Raw Signal [1]: 54135
Z-score [7]: -0.04344

SMILES: Nc1ncnc2c1ncn2[C@@H]1O[C@H](C(=O)NC2CC2)[C@@H](O)[C@H]1O [5 -(N-Cyclopropyl)carboxamidoadenosine]
Raw Signal [1]: 57761
Z-score [7]: -0.02679

SMILES: Nc1cc(N2CCCCC2)nc(N)[n+]1[O-] [Minoxidil]
Raw Signal [1]: 52091
Z-score [2]: -0.3869

SMILES: C[C@H](CCC(=O)NCCS(=O)(=O)O)[C@H]1CC[C@H]2[C@@H]3[C@H](O)C[C@@H]4C[C@H](O)CC[C@]4(C)[C@H]3C[C@H](O)[C@]12C [Sodium Taurocholate]
Raw Signal: 58351
Z-score: 0.07713

SMILES: Nc1nc(N)c2nc(-c3ccccc3)c(N)nc2n1 [Triamterene]
Raw Signal [3]: 65476
Z-score [8]: 1.836

SMILES: CN1[C@@H](CC(=O)c2ccccc2)CCC[C@H]1C[C@H](O)c1ccccc1.Cl [alpha-Lobeline hydrochloride]
Raw Signal [1]: 53929
Z-score [7]: -0.07805

SMILES: Cl.NNC(N)=O [Semicarbazide hydrochloride]
Raw Signal [1]: 55828
Z-score [7]: -0.03804

SMILES: CC(=O)OCC1=C(C(=O)[O-])N2C(=O)[C@@H](NC(=O)CCC[C@@H](N)C(=O)[O-])[C@H]2SC1.[Zn+2] [Cephalosporin C zinc salt]
Raw Signal [1]: 57645
Z-score [7]: -0.04722

SMILES: C[N+](C)(C)CCOC(=O)CCC(=O)OCC[N+](C)(C)C [Succinylcholine chloride]
Raw Signal [3]: 51489
Z-score [4]: -0.881

SMILES: CC(CCc1ccc(O)cc1)NCCc1ccc(O)c(O)c1 (stereo not shown) [Dobutamine hydrochloride]
Raw Signal [3]: 52494
Z-score [4]: -0.5429

SMILES: C/C(=C\c1ccc(C(=O)O)cc1)c1ccc2c(c1)C(C)(C)CCC2(C)C [TTNPB]
Raw Signal [1]: 53849
Z-score [2]: -0.4225

SMILES: COc1ccc(C2CNC(=O)C2)cc1OC1CCCC1 (stereo not shown) [Rolipram]
Raw Signal [1]: 57545
Z-score [7]: 0.2955

SMILES: N=C(N)SCCc1cnc[nH]1 [Imetit dihydrobromide]
Raw Signal: 60718
Z-score: 1.063

SMILES: Cl.N[C@@H](CCC(=O)O)C(=O)O [L-Glutamic acid hydrochloride]
Raw Signal [1]: 55889
Z-score [7]: 0.1466

SMILES: CN[C@H](CC(=O)O)C(=O)O [N-Methyl-D-aspartic acid]
Raw Signal [5]: 57133
Z-score [6]: 0.4603

SMILES: CC(=O)OCC1=C(C(=O)O)N2C(=O)[C@@H](NC(=O)Cc3cccs3)[C@H]2SC1 [Cephalothin sodium]
Raw Signal [1]: 58709
Z-score [7]: 0.1402

SMILES: O=C(O)/C=C\C(=O)O.O=C(O)/C=C\C(=O)O.c1cc(CN2CCCCC2)cc(OCCCNc2nc3ccccc3s2)c1 [SKF 95282 dimaleate]
Raw Signal [1]: 54088
Z-score [2]: -0.3761

SMILES: O=C1CCc2cc(OCCCCc3nnnn3C3CCCCC3)ccc2N1 [Cilostazol]
Raw Signal [1]: 58165
Z-score [7]: 0.04437

SMILES: OC[C@H]1O[C@@H](n2cnc3c(NC4CCCC4)ncnc32)[C@H](O)[C@@H]1O [N6-Cyclopentyladenosine]
Raw Signal [1]: 55487
Z-score [2]: -0.4273

SMILES: CC(C)C[C@H](NC(=O)[C@@H](O)[C@H](N)Cc1ccccc1)C(=O)O [Bestatin hydrochloride]
Raw Signal [1]: 54023
Z-score [2]: -0.2323

SMILES: CCN(CC)C(=S)SSC(=S)N(CC)CC [Tetraethylthiuram disulfide]
Raw Signal [1]: 54661
Z-score [2]: -0.2648
